According to patent US9790215B2 (FLATLEY DISCOVERY LAB, LLC, priority 2013, dated 2017):
pEC50: −log10 of the molar value.

Molecular target: T1, human ΔF508-CFTR (Homo sapiens, UniProt P13569, DEL508-508)
T1 construct: expressed in transfected cells
Test: CFTR-YFP High Throughput Assay (YFP halide flux in FRT cells)
Type: cell-based
Settings: FRT cells expressing human ΔF508-CFTR and YFP; forskolin stimulated
Outline: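 FRT cells stably co-expressing human ΔF508-CFTR and halide-sensitive YFP-H148Q/I152L were treated with compound […] for 24–26 h at 37 °C (corrector mode), washed, then stimulated with 20 μM forskolin plus 30 μM potentiator P3 for 60–120 min at room temperature. Iodide-induced YFP quench (ex 500/em 540 nm) rates came from least-squares fitting.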

T1 sequence (P13569 with tags, fused parts or gaps DEL508-508): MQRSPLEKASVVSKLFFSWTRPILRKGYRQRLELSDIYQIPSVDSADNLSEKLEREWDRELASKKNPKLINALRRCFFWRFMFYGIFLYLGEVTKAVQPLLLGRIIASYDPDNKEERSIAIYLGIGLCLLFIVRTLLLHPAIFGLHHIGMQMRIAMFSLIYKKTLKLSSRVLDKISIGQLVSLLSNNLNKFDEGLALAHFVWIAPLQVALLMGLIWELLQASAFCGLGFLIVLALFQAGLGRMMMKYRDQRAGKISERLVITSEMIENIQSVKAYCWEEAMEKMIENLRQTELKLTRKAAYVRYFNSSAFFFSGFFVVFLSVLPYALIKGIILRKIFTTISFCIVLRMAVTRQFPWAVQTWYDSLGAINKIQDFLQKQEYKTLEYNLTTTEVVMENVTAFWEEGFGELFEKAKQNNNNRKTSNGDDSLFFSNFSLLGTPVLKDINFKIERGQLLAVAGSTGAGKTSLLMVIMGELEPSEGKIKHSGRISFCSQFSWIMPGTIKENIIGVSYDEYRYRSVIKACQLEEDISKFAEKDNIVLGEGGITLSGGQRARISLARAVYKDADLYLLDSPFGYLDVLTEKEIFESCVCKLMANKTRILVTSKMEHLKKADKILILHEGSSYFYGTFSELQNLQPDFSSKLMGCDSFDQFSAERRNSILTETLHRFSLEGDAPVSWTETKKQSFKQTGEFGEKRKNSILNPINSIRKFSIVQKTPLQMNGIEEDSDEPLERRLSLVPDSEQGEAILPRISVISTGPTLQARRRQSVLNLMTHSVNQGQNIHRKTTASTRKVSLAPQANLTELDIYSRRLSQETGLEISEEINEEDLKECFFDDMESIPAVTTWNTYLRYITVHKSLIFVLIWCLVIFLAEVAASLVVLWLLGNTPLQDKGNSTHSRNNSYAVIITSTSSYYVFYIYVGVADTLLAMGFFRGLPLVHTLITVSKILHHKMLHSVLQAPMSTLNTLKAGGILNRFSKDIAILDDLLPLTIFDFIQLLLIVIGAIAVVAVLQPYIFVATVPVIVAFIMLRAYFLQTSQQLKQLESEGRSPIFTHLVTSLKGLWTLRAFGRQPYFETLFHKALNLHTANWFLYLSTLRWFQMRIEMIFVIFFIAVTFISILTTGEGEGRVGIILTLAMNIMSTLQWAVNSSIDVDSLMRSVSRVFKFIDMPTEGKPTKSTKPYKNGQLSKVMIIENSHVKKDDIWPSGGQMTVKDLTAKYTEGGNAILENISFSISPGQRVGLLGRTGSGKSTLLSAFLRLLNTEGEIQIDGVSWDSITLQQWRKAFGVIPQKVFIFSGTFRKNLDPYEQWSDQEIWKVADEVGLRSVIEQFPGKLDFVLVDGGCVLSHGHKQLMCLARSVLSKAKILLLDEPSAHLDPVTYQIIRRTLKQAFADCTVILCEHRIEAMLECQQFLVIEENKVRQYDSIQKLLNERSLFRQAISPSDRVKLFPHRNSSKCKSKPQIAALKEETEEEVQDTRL

For `CCN(C(=O)Cn1ncc2c(c1=O)c1ccccc1n2Cc1ccccn1)c1ccc2c(c1)OC(F)(F)O2` [Example 85, N-(2,2-difluorobenzo[d][1,3]dioxol-5-yl)-N-ethyl-2-(1-oxo-5-(pyridin-2-ylmethyl)-1H-pyridazino[4,5-b]indol-2(5H)-yl)acetamide], the pEC50 was 4.70 to 5.00.

With `CCN(C(=O)Cn1ncc2c(c1=O)c1ccccc1n2CCOC)c1ccc2c(c1)OC(F)(F)O2` [Example 86, N-(2,2-difluorobenzo[d] [1,3]dioxol-5-yl)-N-ethyl-2-(5-(2-methoxyethyl)-1-oxo-1H-pyridazino[4,5-b]indol-2(5H)-yl)acetamide] the pEC50 was greater than 5.00.

For `CCN(C(=O)Cn1ncc2c(c1=O)c1ccccc1n2Cc1ccccc1)c1ccc2c(c1)OC(F)(F)O2` [Example 87, 2-(5-benzyl-1-oxo-1H-pyridazino[4,5-b]indol-2(5H)-yl)-N-(2,2-difluorobenzo[d][1,3]dioxol-5-yl)-N-ethylacetamide], the pEC50 was greater than 5.00.

For `CCN(C(=O)Cn1ncc2c(c1=O)c1ccccc1n2CCC(=O)OC)c1ccc2c(c1)OC(F)(F)O2` [Example 88, methyl 3-(2-(2-((2,2-difluorobenzo[d][1,3]dioxol-5-yl)(ethyl)amino)-2-oxoethyl)-1-oxo-1H-pyridazino[4,5-b]indol-5(2H)-yl)propanoate], the pEC50 was greater than 5.00.

`CCN(C(=O)Cn1ncc2c(c1=O)c1ccccc1n2Cc1cccc(OC)c1)c1ccc2c(c1)OC(F)(F)O2` [Example 89, N-(2,2-difluorobenzo[d] [1,3]dioxol-5-yl)-N-ethyl-2-(5-(3-methoxybenzyl)-1-oxo-1H-pyridazino[4,5-b]indol-2(5H)-yl)acetamide] gave a pEC50 of 4.70 to 5.00.

`CCN(C(=O)Cn1ncc2c(c1=O)c1ccccc1n2Cc1ccc(OC)cc1)c1ccc2c(c1)OC(F)(F)O2` [Example 90, N-(2,2-difluorobenzo[d][1,3]dioxol-5-yl)-N-ethyl-2-(5-(4-methoxy-benzyl)-1-oxo-1H-pyridazino[4,5-b]indol-2(5H)-yl)acetamide] gave a pEC50 of 4.70 to 5.00.

Compound `CCN(C(=O)Cn1ncc2c(c1=O)c1ccccc1n2CCCOC)c1ccc2c(c1)OC(F)(F)O2` [Example 91, N-(2,2-difluorobenzo[d] [1,3]dioxol-5-yl)-N-ethyl-2-(5-(3-methoxypropyl)-1-oxo-1H-pyridazino[4,5-b]indol-2(5H)-yl)acetamide] has a pEC50 greater than 5.00.

`CCN(C(=O)Cn1ncc2c(c1=O)c1ccccc1n2CCC#N)c1ccc2c(c1)OC(F)(F)O2` [Example 92, 2-(5-(2-cyanoethyl)-1-oxo-1H-pyridazino[4,5-b]indol-2(5H)-yl)-N-(2,2-difluorobenzo[d][1,3]dioxol-5-yl)-N-ethylacetamide] showed a pEC50 greater than 5.00.

`CCN(C(=O)Cn1ncc2c(c1=O)c1ccccc1n2CC#N)c1ccc2c(c1)OC(F)(F)O2` [Example 93, 2-(5-(cyanomethyl)-1-oxo-1H-pyridazino[4,5-b]indol-2(5H)-yl)-N-(2,2-difluorobenzo[d][1,3]dioxol-5-yl)-N-ethylacetamide] showed a pEC50 greater than 5.00.

In the case of `CCN(C(=O)Cn1ncc2c(c1=O)c1ccccc1n2Cc1cccnc1)c1ccc2c(c1)OC(F)(F)O2` [Example 94, N-(2,2-difluorobenzo[d][1,3]dioxol-5-yl)-N-ethyl-2-(1-oxo-5-(pyridin-3-ylmethyl)-1H-pyridazino[4,5-b]indol-2(5H)-yl)acetamide], the pEC50 was greater than 5.00.

Work on `CCN(C(=O)Cn1ncc2c(c1=O)c1ccccc1n2Cc1ccccc1C#N)c1ccc2c(c1)OC(F)(F)O2` [Example 95, 2-(5-(2-cyanobenzyl)-1-oxo-1H-pyridazino[4,5-b]indol-2(5H)-yl)-N-(2,2-difluorobenzo[d][1,3]dioxol-5-yl)-N-ethylacetamide] yielded a pEC50 greater than 5.00.

`CCN(C(=O)Cn1ncc2c(c1=O)c1ccccc1n2Cc1cccc(C#N)c1)c1ccc2c(c1)OC(F)(F)O2` [Example 96, 2-(5-(3-cyanobenzyl)-1-oxo-1H-pyridazino[4,5-b]indol-2(5H)-yl)-N-(2,2-difluorobenzo[d][1,3]dioxol-5-yl)-N-ethylacetamide] gave a pEC50 greater than 5.00.

`CCN(C(=O)Cn1ncc2c(c1=O)c1ccccc1n2Cc1ccncc1)c1ccc2c(c1)OC(F)(F)O2` [Example 97, N-(2,2-difluorobenzo[d] [1,3]dioxol-5-yl)-N-ethyl-2-(1-oxo-5-(pyridin-4-ylmethyl)-1H-pyridazino[4,5-b]indol-2(5H)-yl)acetamide] showed a pEC50 greater than 5.00.

With `Cc1ccc(-n2nc(C(=O)N3CCCCC3)c3c4ccccc4n(C)c3c2=O)cc1` [Example 101, 5-methyl-1-(piperidine-1-carbonyl)-3-p-tolyl-3H-pyridazino[4,5-b]indol-4(5H)-one] the pEC50 was greater than 5.00.

With `CCN(C(=O)c1nn(-c2ccccc2)c(=O)c2c1c1ccccc1n2C)c1ccncn1` [Example 102, N-ethyl-5-methyl-4-oxo-3-phenyl-N-(pyrimidin-4-yl)-4,5-dihydro-3H-pyridazino[4,5-b]indole-1-carboxamide] the pEC50 was greater than 5.00.

Compound `Cc1ccc(-n2nc(C(=O)N(c3ccccc3)C(C)C)c3c4ccccc4n(C)c3c2=O)cc1` [Example 103, N-isopropyl-5-methyl-4-oxo-N-phenyl-3-(p-tolyl)-4,5-dihydro-3H-pyridazino[4,5-b]indole-1-carboxamide] has a pEC50 greater than 5.00.

For `Cc1ccc(-n2nc(C(=O)N(c3ccccc3)C3CC3)c3c4ccccc4n(C)c3c2=O)cc1` [Example 104, N-cyclopropyl-5-methyl-4-oxo-N-phenyl-3-(p-tolyl)-4,5-dihydro-3H-pyridazino[4,5-b]indole-1-carboxamide], the pEC50 was greater than 5.00.

Work on `Cc1ccc(-n2nc(C(=O)N(CC#N)c3ccccc3)c3c4ccccc4n(C)c3c2=O)cc1` [Example 105, N-(cyanomethyl)-5-methyl-4-oxo-N-phenyl-3-(p-tolyl)-4,5-dihydro-3H-pyridazino[4,5-b]indole-1-carboxamide] yielded a pEC50 greater than 5.00.

`CCN(CC)C(=O)c1nn(-c2ccc(C)cc2)c(=O)c2c1c1ccccc1n2C` [Example 106, N,N-diethyl-5-methyl-4-oxo-3-(p-tolyl)-4,5-dihydro-3H-pyridazino[4,5-b]indole-1-carboxamide] was tested, and the pEC50 was greater than 5.00.

`CCN(C(=O)c1nn(-c2ccc(C)cc2)c(=O)c2c1c1ccccc1n2C)c1ccccn1` [Example 107, N-ethyl-5-methyl-4-oxo-N-(pyridin-2-yl)-3-(p-tolyl)-4,5-dihydro-3H-pyridazino[4,5-b]indole-1-carboxamide] showed a pEC50 greater than 5.00.

`CCN(C(=O)c1nn(-c2ccc(C)cc2)c(=O)c2c1c1ccccc1n2C)c1cccnc1` [Example 108, N-ethyl-5-methyl-4-oxo-N-(pyridin-3-yl)-3-(p-tolyl)-4,5-dehydro-3H-pyridazino[4,5-b]indole-1-carboxamide] showed a pEC50 greater than 5.00.

With `CCN(C(=O)c1nn(-c2ccccc2)c(=O)c2c1c1ccccc1n2C)c1ccncc1` [Example 109, N-ethyl-5-methyl-4-oxo-3-phenyl-N-(pyridin-4-yl)-4,5-dihydro-3H-pyridazino[4,5-b]indole-1-carboxamide] the pEC50 was greater than 5.00.

In the case of `Cc1ccc(-n2nc(C(=O)N3CCCc4ccccc43)c3c4ccccc4n(C)c3c2=O)cc1` [Example 110, 5-methyl-1-(1,2,3,4-tetrahydroquinoline-1-carbonyl)-3-(p-tolyl)-3H-pyridazino[4,5-b]indol-4(5H)-one], the pEC50 was greater than 5.00.

`CCN(C(=O)c1nn(-c2ccc(C)cc2)c(=O)c2c1c1ccccc1n2C)C1CC1` [Example 111, N-cyclopropyl-N-ethyl-5-methyl-4-oxo-3-(p-tolyl)-4,5-dihydro-3H-pyridazino[4,5-b]indole-1-carboxamide] was tested, and the pEC50 was greater than 5.00.
